Key:
[1] = system: persistent forms of Chlamydia; assay: Penicillin G on persistent infection induced by IFN-γ; assay type: cell-based, Chlamydia trachomatis
Description: HeLa cells cultured in monolayers on slides were infected with serovar L2 with an IFU of 1, as described above (Verbeke, P. et al. PLoS Pathog 2:e45, 2006). Three hours after the infection, the medium was removed and replaced with culture medium containing 500 IU/ml (final concentration) recombinant human IFN-γ. The infected cells were incubated for an additional 100 hours in the presence of IFN-γ before being prepared for confocal microscopy as described below.
HeLa cells cultured in monolayers on slides were infected with Chlamydia trachomatis serovar L2 and treated with penicillin G, as described above. Twenty hours after infection, the culture was washed and the medium replaced with medium free of penicillin G. Between 48 and 100 hpi, the cells and the culture medium were collected at various intervals and a titration test was performed according to the method of the prior art (Scidmore, M. A. Curr Protoc Microbiol Chapter 11: Unit 11A 11, 2005). To determine whether treatment with penicillin G could affect bacterial persistence, HeLa cells infected with L2 and treated with IFN-γ and penicillin G (500 IU/ml) from 48 hpi (i.e. 24 hours after treatment with IFN-γ) to 72 hpi (i.e. 48 hours after treatment with IFN-γ). The slides were then fixed and observed using an epifluorescence microscope (Leica D M, Leica, Mannheim, Germany) equipped with two sets of detection filters (Hoechst 360/40 nmBP-425 nmLP; FITC 480/40 nmBP-527/30 nmBP) and connected to a CCD camera CCC.
The effects of penicillin G were tested on persistent infections. Cells were infected and then treated with IFN-γat 3 hpi. Once the appearance of persistent inclusions was observed under the microscope, penicillin G was added to the infected cells cultured in the presence of IFN-γ.

[2] = system: Cells Infected with Chlamydia trachomatis serovar L2; assay: Cytotoxicity of β-lactams; assay type: cell-based; conditions: given as 0
Description: It was first sought to verify whether other molecules of the β-lactam family could induce in vitro the same abnormal and noninfectious forms of Chlamydia trachomatis as that produced in the presence of penicillin G. Titration experiments were performed on the infectious ability of bacteria from infected cells treated with different β-lactams. Cytotoxicity and minimum bactericidal concentration (MBC) were determined for each of these molecules. It was also verified whether all of these β-lactams have bactericidal action on persistent forms of Chlamydia trachomatis produced in vitro under the effect of IFN-γ.

Chlamydia muridarum = assay: Murine model of genital infection (hydrosalpinx); assay type: in vivo, C57B1/6 mice; conditions: 5 mg/ml in drinking water for 20 days from day 10, read 60 days later
Description: The mice were infected by vaginal route with 10^7 IFU of Chlamydia muridarum. […] The antibiotic treatment was stopped after 20 days and the mice were kept isolated for an additional 60 days. The mice were then sacrificed, the appearance of the genital tract analyzed and the presence of hydrosalpinx (arrows) sought.
C57B1/6 mice were infected with Chlamydia muridarum, a Chlamydia species that infects mice and guinea pigs and is genetically close to Chlamydia trachomatis. Estrous cycles in the mice were initiated by injection of progesterone, and then the mice were infected vaginally after 3 days (10^7 IFU). Ten days after infection, the mice were divided into three groups, a negative control group not receiving any antibiotic, a positive control group receiving doxycycline (5 mg/ml) and a test group receiving penicillin G (5 mg/ml). The duration of the treatment was 20 days; the antibiotics, doxycycline and penicillin G, were added to the mice's drinking water. After treatment, the mice were kept isolated for 60 days in order for persistent bacteria to reinitiate their cycle and for sequelae to develop. The mice were then sacrificed, the appearance of the genital tract analyzed and the presence of hydrosalpinx sought. Various organs were also taken.
The effects of penicillin G were tested in a murine model of genital infection. […]

[3] = system: Chlamydia trachomatis serovar L2; assay: Development and morphology of inclusions in infected HeLa cells (microscopy); assay type: cell-based
Description: HeLa cells were infected with Chlamydia trachomatis serovar L2 and treated with IFN-γ (100 ng/ml), penicillin G (100 U/ml) or gentamicin ([…]). At various times after infection (hours post-infection (hpi)), the cells were fixed and stained with an antibody against Chlamydia sp. (green in the original figure) and with Hoechst (blue in the original figure). The infected HeLa cells treated with penicillin G have abnormal bodies that grow and that are phenotypically quite different from those formed during treatment with IFN-γ. The bodies formed with penicillin G are appreciably different from “classic” persistent bodies. To examine the effects of penicillin G on cell infection with Chlamydia, the host cells were cultivated up to 70% confluence without antibiotics, and then were infected with C. trachomatis strain […]. muridarum at 1 IFU. The infections were carried out at 37° C. for 90 minutes with centrifugation, followed by a washing of extracellular bacteria. At 3 hpi, after the washings, the culture medium was replaced with medium containing either 25 μg/ml gentamicin or 1-100 IU/ml penicillin G. At regular intervals after treatment with penicillin G, the cultures were either fixed in 4% neutral buffered PFA for 30 minutes to be prepared for confocal microscopy, or collected to determine the infectivity of the progeny bacteria, according to the previously described method (Verbeke, P. et al. PLoS Pathog 2:e45, 2006). HeLa cells cultured in monolayers on slides were infected with serovar L2 with an IFU of 1, as described above (Verbeke, P. et al. PLoS Pathog 2:e45, 2006). Three hours after the infection, the medium was removed and replaced with culture medium containing 500 IU/ml (final concentration) recombinant human IFN-γ.

## CC1(C)S[C@@H]2[C@H](NC(=O)Cc3ccccc3)C(=O)N2[C@H]1C(=O)O [Penicillin G, benzylpenicillin]
[1]; cells kept in IFN-γ
  inclusion growth of persistent inclusions after addition of penicillin G: Rapid reinitiation of inclusion growth
[1]; persistent infection
  infectivity of bacteria released on lysis: noninfectious
[1]; persistent infection, IFN-γ present
  time of cell lysis after start of treatment: 70 h
[1]; twenty-four hours after addition of penicillin G
  cathepsin D in bacterial forms of persistent infection: most of the abnormal bacterial forms contained cathepsin D
[2]
  Cytotox.: 0
Chlamydia muridarum
  appearance of the genital tract / hydrosalpinx: normal appearance
[3]; infected HeLa cells, videomicroscopy / culture for 4 days
  growth of the bacterial inclusions: grow as quickly as those of cells treated with gentamicin
[3]; penicillin G
  time at which infected treated cells were lysed: 120 hours post-infection (hpi)
[3]; penicillin G added at various times after infection
  appearance of abnormally dilated structures depending on time of addition: only when penicillin G is added in the first phase of the bacterial cycle (before 24 hpi)

Reference: patent US20130053336A1, “TREATMENT OF CHLAMYDIACEAE INFECTIONS BY MEANS OF BETA-LACTAMS” (priority 2010, published 2013)
